Test results as given in US20240360151A1 (SANOFI, priority 2023, published 2024).
Where a name gives a salt, the structure may show the parent alone.

Target: T1, NLRP3 inflammasome (Homo sapiens, UniProt Q96P20)
T1 construct: endogenous in cells; host or cells: THP-1 monocytic cells
Experiment: IL-1β secretion assay (NLRP3 IC50) in LPS-primed, nigericin-activated THP-1 cells, HTRF
Type: cell-based
Details: monocytic THP-1 cells; LPS 10 ng/mL 3 h priming, then compound + nigericin 10 μM 2 h; relative IC50, 10 concentrations, geometric mean
Method in brief: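 THP-1 cells primed with LPS 10 ng/mL for 3 h at 37° C., then compound (10-point 1:3 dilution, 0.1% DMSO) added with 10 μM nigericin for 2 h. Supernatant IL-1β measured by HTRF; relative IC50 from a 4-parameter logistic fit, reported as geometric mean.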

T1 sequence (Q96P20 whole entry): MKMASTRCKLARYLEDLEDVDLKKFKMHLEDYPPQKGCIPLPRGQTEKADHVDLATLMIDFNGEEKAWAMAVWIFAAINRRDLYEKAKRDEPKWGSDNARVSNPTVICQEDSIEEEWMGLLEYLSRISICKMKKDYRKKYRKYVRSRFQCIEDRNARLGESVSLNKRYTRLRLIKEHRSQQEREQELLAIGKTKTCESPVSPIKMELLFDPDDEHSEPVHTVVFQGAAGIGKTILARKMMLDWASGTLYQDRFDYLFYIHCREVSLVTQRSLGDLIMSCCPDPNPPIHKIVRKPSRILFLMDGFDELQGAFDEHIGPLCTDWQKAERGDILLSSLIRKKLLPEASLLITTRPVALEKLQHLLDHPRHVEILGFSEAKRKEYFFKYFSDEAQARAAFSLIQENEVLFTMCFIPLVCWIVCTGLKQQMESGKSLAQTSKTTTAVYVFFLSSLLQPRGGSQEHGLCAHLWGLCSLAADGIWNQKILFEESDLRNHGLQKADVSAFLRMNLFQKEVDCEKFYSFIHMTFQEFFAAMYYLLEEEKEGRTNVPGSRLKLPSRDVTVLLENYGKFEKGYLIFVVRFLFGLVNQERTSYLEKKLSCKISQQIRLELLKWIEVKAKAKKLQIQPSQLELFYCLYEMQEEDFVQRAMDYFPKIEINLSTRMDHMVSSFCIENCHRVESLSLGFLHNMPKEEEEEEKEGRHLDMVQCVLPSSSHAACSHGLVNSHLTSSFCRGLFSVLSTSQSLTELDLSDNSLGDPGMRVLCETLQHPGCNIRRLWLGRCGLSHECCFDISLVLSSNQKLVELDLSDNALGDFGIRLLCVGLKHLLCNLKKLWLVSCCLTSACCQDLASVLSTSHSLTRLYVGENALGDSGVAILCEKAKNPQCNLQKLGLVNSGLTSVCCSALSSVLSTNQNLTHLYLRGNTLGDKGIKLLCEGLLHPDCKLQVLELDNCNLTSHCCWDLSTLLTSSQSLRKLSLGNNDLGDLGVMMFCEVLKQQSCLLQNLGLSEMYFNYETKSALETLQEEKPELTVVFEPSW

| IC50 [nM] | SMILES |
| --- | --- |
| 223 | CCN1CC[C@H]2OCCN(c3ccc(-c4c(C)cc(C(F)(F)F)cc4O)nn3)[C@@H]2C1 [Example 344, 2-[6-[(4aR,8aR)-6-ethyl-3,4a,5,7,8,8a-hexahydro-2H-pyrido[4,3-b][1,4]oxazin-4-yl]pyridazin-3-yl]-3-methyl-5-(trifluoromethyl)phenol] |
| 893 | Oc1cc(Cl)cc(Cl)c1-c1ccc(N2CCC3(CC2)CC(O)C3)nn1 [Example 37, 7-[6-(2,4-dichloro-6-hydroxy-phenyl)pyridazin-3-yl]-7-azaspiro[3.5]nonan-2-ol] |
| 5 | CCc1cc(C(F)(F)F)cc(O)c1-c1ccc(N2CC[C@@H]3CCN(C)C[C@@H]32)nn1 (racemic) [Example 452, 2-[6-[rac-(3aS,7aR)-6-methyl-3,3a,4,5,7,7a-hexahydro-2H-pyrrolo[2,3-c]pyridin-1-yl]pyridazin-3-yl]-3-ethyl-5-(trifluoromethyl)phenol] |
| 544 | Cc1cc(N2CC[C@H]3CCN(C)C[C@H]32)nnc1-c1ccc(Cl)cc1O (single isomer, unassigned) [Example 468] |
| 958 | Cc1cc(C)c(-c2ccc(N3CC4(CO)CCCC3C4)nn2)c(O)c1 (centres unmarked) [Example 114, 2-[6-[1-(hydroxymethyl)-6-azabicyclo[3.2.1]octan-6-yl]pyridazin-3-yl]-3,5-dimethyl-phenol] |
| 143 | Cc1cc(C(F)(F)F)cc(O)c1-c1ccc(N2CCC[C@@H](CO)C2=O)nn1 (single isomer, unassigned) [Example 288] |
| 55 | Cc1cc(C)c(-c2ccc(N3CCC[C@H]4CCN(C)C[C@@H]43)nn2)c(O)c1 [Example 520, 2-[6-[(4aS,8aR)-7-methyl-2,3,4,4a,5,6,8,8a-octahydro-1,7-naphthyridin-1-yl]pyridazin-3-yl]-3,5-dimethyl-phenol] |
| 5470 | Cc1cc(C)c(-c2ccc(N3CCC4(CC3)CNC4)nn2)c(O)c1 [Example 7, 2-[6-(2,7-diazaspiro[3.5]nonan-7-yl)pyridazin-3-yl]-3,5-dimethyl-phenol; 2,2,2-trifluoroacetic acid] |
| 858 | Cc1cc(C(F)(F)F)cc(O)c1-c1ccc(N2CC[C@@H]3CCN(C)C[C@H]32)nn1 (racemic) [Example 364, 2-[6-[rac-(3aS,7aS)-6-methyl-3,3a,4,5,7,7a-hexahydro-2H-pyrrolo[2,3-c]pyridin-1-yl]pyridazin-3-yl]-3-methyl-5-(trifluoromethyl)phenol] |
| 249 | Cc1cc(Cl)cc(O)c1-c1ccc(N2CCO[C@@H]3CCNC[C@@H]32)nn1 [Example 309, 2-[6-[(4aS,8aR)-2,3,4a,5,6,7,8,8a-octahydropyrido[4,3-b][1,4]oxazin-4-yl]pyridazin-3-yl]-5-chloro-3-methyl-phenol] |
| 571 | CC(=O)N1CC[C@H]2CCN(c3cc(C(F)F)c(-c4ccc(C(F)(F)F)cc4O)nn3)[C@H]2C1 (single isomer, unassigned) [Example 511] |
| 16 | Cc1cc(O)c(-c2ccc(N3CCO[C@H](CO)C3)nn2)c(C(F)(F)F)c1 [Example 509, 2-[6-[(2S)-2-(hydroxymethyl)morpholin-4-yl]pyridazin-3-yl]-5-methyl-3-(trifluoromethyl)phenol] |
| 199 | CC(=O)N1C[C@@H]2OCCN(c3ccc(-c4c(C)cc(C(F)(F)F)cc4O)nn3)[C@@H]2C1 (single isomer, unassigned) [Example 348] |
| 115 | Cc1cc(C(F)(F)F)cc(O)c1-c1ccc(N2CCC[C@H](CO)C2=O)nn1 (single isomer, unassigned) [Example 287] |
| 411 | Cc1cc(C(F)(F)F)cc(O)c1-c1ccc(N2CCO[C@@H]3CCOC[C@@H]32)nn1 (racemic) [Example 438, 3-methyl-2-[6-[rac-(4aS,8aR)-3,4a,5,7,8,8a-hexahydro-2H-pyrano[4,3-b][1,4]oxazin-4-yl]pyridazin-3-yl]-5-(trifluoromethyl)phenol] |
| 1250 | Cc1cc(C(F)(F)F)cc(O)c1-c1ccc(N2CCOC(C(C)(C)O)C2)nn1 (single isomer, unassigned) [Example 52, 2-[6-[2-(1-hydroxy-1-methyl-ethyl)morpholin-4-yl]pyridazin-3-yl]-3-methyl-5-(trifluoromethyl)phenol] |
| 1050 | Cc1cc(C)c(-c2ccc(N3CCOC[C@@H]3CN)nn2)c(O)c1 [Example 124, 2-[6-[(3S)-3-(aminomethyl)morpholin-4-yl]pyridazin-3-yl]-3,5-dimethyl-phenol] |
| 3030 | Cc1cc(C)c(-c2ccc(N3CCO[C@@H](C4(N)CC4)C3)nn2)c(O)c1 (single isomer, unassigned) [Example 136] |
| 410 | Cc1cc(Cl)cc(O)c1-c1ccc(N2CCO[C@H]3CCN(C)C[C@H]32)nn1 (single isomer, unassigned) [Example 307] |

| IC50 [nM] | SMILES |
| --- | --- |
| 4060 | Cc1cc(C)c(-c2ccc(N3CCC4(COCCN4C)C3)nn2)c(O)c1 (centres unmarked) [Example 444, 3,5-dimethyl-2-[6-(6-methyl-9-oxa-2,6-diazaspiro[4.5]decan-2-yl)pyridazin-3-yl]phenol] |
| 1 | CCc1cc(C)cc(O)c1-c1ccc(N2CC[C@@H]3CCN(C)C[C@@H]32)nn1 (racemic) [Example 459, 3-ethyl-5-methyl-2-[6-[rac-(3aS,7aR)-6-methyl-3,3a,4,5,7,7a-hexahydro-2H-pyrrolo[2,3-c]pyridin-1-yl]pyridazin-3-yl]phenol] |
| 2880 | CC(=O)N1C[C@@H]2[C@@H](C1)OCCN2c1ccc(-c2c(C)cc(C(F)(F)F)cc2O)nn1 (racemic) [Example 337, 1-[rac-(4aR,7aR)-4-[6-[2-hydroxy-6-methyl-4-(trifluoromethyl)phenyl]pyridazin-3-yl]-2,3,4a,5,7,7a-hexahydropyrrolo[3,4-b][1,4]oxazin-6-yl]ethanone] |
| 1190 | CCN1CCN(c2ccc(-c3c(C)cc(C)cc3O)nn2)CC12CCOC2 (centres unmarked) [Example 227, 2-[6-(6-ethyl-2-oxa-6,9-diazaspiro[4.5]decan-9-yl)pyridazin-3-yl]-3,5-dimethylphenol] |
| 116 | Cc1cc(C(F)(F)F)cc(O)c1-c1ccc(N2CCO[C@H]3CNC[C@H]32)nn1 (racemic) [Example 320, 3-methyl-2-[6-[rac-(4aR,7aS)-3,4a,5,6,7,7a-hexahydro-2H-pyrrolo[3,4-b][1,4]oxazin-4-yl]pyridazin-3-yl]-5-(trifluoromethyl)phenol] |
| 1260 | Cc1cc(C(F)(F)F)cc(O)c1-c1ccc(N2CCO[C@H](CN(C)C)C2)nn1 [Example 27, 2-[6-[(2R)-2-[(dimethylamino)methyl]morpholin-4-yl]pyridazin-3-yl]-3-methyl-5-(trifluoromethyl)phenol] |
| 987 | Cc1cc(C)c(-c2ccc(N3CC(=O)N[C@H](CO)C3)nn2)c(O)c1 (single isomer, unassigned) [Example 330] |
| 601 | Cc1cc(C(F)(F)F)cc(O)c1-c1ccc(N2CCOC(CO)C2=O)nn1 (single isomer, unassigned) [Example 420] |
| 481 | COC[C@H]1CCN(c2ccc(-c3c(C)cc(C)cc3O)nn2)C1 [Example 82, 2-[6-[(3S)-3-(methoxymethyl)pyrrolidin-1-yl]pyridazin-3-yl]-3,5-dimethyl-phenol] |
| 1050 | Cc1cc(C)c(-c2nnc(N3CCO[C@H](CO)C3)cc2CO)c(O)c1 [Example 186, 2-[4-(hydroxymethyl)-6-[(2S)-2-(hydroxymethyl)morpholin-4-yl]pyridazin-3-yl]-3,5-dimethyl-phenol] |
| 40 | C#Cc1cc(C)c(-c2ccc(N3CCO[C@H](CO)C3)nn2)c(O)c1 [Example 508, 5-ethynyl-2-[6-[(2S)-2-(hydroxymethyl)morpholin-4-yl]pyridazin-3-yl]-3-methyl-phenol] |
| 500 | CC(=O)N1CC[C@H]2CCN(c3ccc(-c4c(C)cc(C)cc4O)nn3)[C@H]2C1 (single isomer, unassigned) [Example 413] |
| 883 | Cc1cc(C(F)(F)F)cc(O)c1-c1ccc(N2CCO[C@@H]3CNC[C@H]32)nn1 (racemic) [Example 318, 3-methyl-2-[6-[rac-(4aR,7aR)-3,4a,5,6,7,7a-hexahydro-2H-pyrrolo[3,4-b][1,4]oxazin-4-yl]pyridazin-3-yl]-5-(trifluoromethyl)phenol; hydrochloride] |
| 234 | CC(=O)N1CC[C@H]2CCN(c3ccc(-c4c(C)cc(C(F)(F)F)cc4O)nn3)[C@H]2C1 [Example 395, 1-[(3aR,7aR)-1-[6-[2-hydroxy-6-methyl-4-(trifluoromethyl)phenyl]pyridazin-3-yl]-3,3a,4,5,7,7a-hexahydro-2H-pyrrolo[2,3-c]pyridin-6-yl]ethanone] |
| 14 | Cc1cc(C)c(-c2ccc(N3CCO[C@H]4C[C@H](O)C[C@H]43)nn2)c(O)c1 (single isomer, unassigned) [Example 467] |
| 779 | Cc1cc(C)c(-c2ccc(N3CCC[C@H](N(C)C)C3)nn2)c(O)c1 [Example 128, 2-[6-[(3S)-3-(dimethylamino)-1-piperidyl]pyridazin-3-yl]-3,5-dimethyl-phenol] |
| 1 | Cc1ccc(-c2nnc(N3CCO[C@@H]4CCN(C(C)C)C[C@@H]43)cc2C)c(O)c1 [Example 472, 2-[6-[(4aS,8aR)-6-isopropyl-3,4a,5,7,8,8a-hexahydro-2H-pyrido[4,3-b][1,4]oxazin-4-yl]-4-methyl-pyridazin-3-yl]-5-methyl-phenol] |
| 1140 | CCc1cccc(O)c1-c1ccc(N2CC[C@@H]3CCN(C)C[C@@H]32)nn1 (single isomer, unassigned) [Example 422] |
| 292 | Cc1cc(C(F)(F)F)cc(O)c1-c1ccc(N2CCO[C@H](CC#N)C2)nn1 (single isomer, unassigned) [Example 327] |
